What was measured:
galium = assay: Test C pre-/postemergence herbicide test; format: in vivo, Galium aparine; settings: Preemergence
In short: (§1)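 Greenhouse pots; formulation = non-phytotoxic solvent mix + surfactant. PRE onto seeds in loam:sand; POST at 1–4 leaves (2–18 cm) in peat moss/vermiculite medium. Read-out: visual % control vs untreated, day 13–15.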

pigweed = assay: Test C pre-/postemergence herbicide test; format: in vivo, Amaranthus retroflexus
In short: as §1

soybean = assay: Test C pre-/postemergence herbicide test; format: in vivo, Glycine max
In short: as §1

crabgrass, large = assay: Test C pre-/postemergence herbicide test; format: in vivo, Digitaria sanguinalis
In short: as §1

blackgrass = assay: Test C pre-/postemergence herbicide test; format: in vivo, Alopecurus myosuroides
In short: as §1

velvetleaf = assay: Test C pre-/postemergence herbicide test; format: in vivo, Abutilon theophrasti
In short: as §1

oat, wild = assay: Test C pre-/postemergence herbicide test; format: in vivo, Avena fatua
In short: as §1

foxtail, giant = assay: Test C pre-/postemergence herbicide test; format: in vivo, Setaria faberii
In short: as §1

barnyardgrass = assay: Test A pre-/postemergence herbicide test; format: in vivo, Echinochloa crus-galli
In short: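 Greenhouse pot test with pre- and postemergence application of surfactant-containing solvent formulations. Postemergence plants were 2–10 cm, one- to two-leaf stage. Response scored visually after ~10 days, 0 (no effect) to 100 (complete control).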

wheat (winter wheat) = assay: Test C pre-/postemergence herbicide test; format: in vivo, Triticum aestivum
In short: as §1

[1] = Postemergence, 16 g ai/ha, scale 0 to 100 (0 no effect, 100 complete control)
[2] = Postemergence, 31 g ai/ha, scale 0 (no effect) to 100 (complete control)
[3] = Postemergence, 62 g ai/ha, scale 0 to 100 (0 no effect, 100 complete control)
[4] = Postemergence, 125 g ai/ha, scale 0 to 100 (0 no effect, 100 complete control)
[5] = Preemergence, 62 g ai/ha, scale 0 to 100
[6] = Preemergence, 125 g ai/ha, scale 0 to 100 (0 no effect, 100 complete control)
[7] = Preemergence, 16 g ai/ha, scale 0 to 100
[8] = Preemergence, 31 g ai/ha, scale 0 to 100 (0 no effect, 100 complete control)

O=C1NCC(c2cc(F)c(F)c(F)c2)C1C(=O)Nc1cccc(F)c1F (stereo not shown) [Compound 48]
Plant response rating, Galium (galium; 62 g ai/ha, scale 0 to 100): 30
Plant response rating, Galium (galium; 125 g ai/ha, scale 0 to 100 (0 no effect, 100 complete control)): 60
Plant response rating, Galium (galium; 16 g ai/ha, scale 0 to 100): 0
Galium plant response rating (galium; 31 g ai/ha, scale 0 to 100 (0 no effect, 100 complete control)): 0
Plant response rating, Pigweed (pigweed; [1]): 10
Plant response rating, Pigweed (pigweed; [2]): 25
Plant response rating, Pigweed (pigweed; [3]): 30
Plant response rating, Pigweed (pigweed; [4]): 40
Plant response rating, Pigweed (pigweed; [5]): 0
Plant response rating, Pigweed (pigweed; [6]): 0
Plant response rating, Pigweed (pigweed; [7]): 0
Plant response rating, Soybean (soybean; [1]): 5
Plant response rating, Soybean (soybean; [2]): 10
Plant response rating, Soybean (soybean; [3]): 10
Plant response rating, Soybean (soybean; [4]): 10
Plant response rating, Soybean (soybean; [5]): 10
Plant response rating, Soybean (soybean; [6]): 15
Plant response rating, Soybean (soybean; [7]): 10
Plant response rating, Crabgrass, Large (crabgrass, large; [1]): 20
Plant response rating, Crabgrass, Large (crabgrass, large; [2]): 40
Plant response rating, Crabgrass, Large (crabgrass, large; [3]): 65
Plant response rating, Crabgrass, Large (crabgrass, large; [4]): 75
Plant response rating, Crabgrass, Large (crabgrass, large; [5]): 90
Plant response rating, Crabgrass, Large (crabgrass, large; [6]): 95
Plant response rating, Crabgrass, Large (crabgrass, large; [7]): 75
Crabgrass, Large plant response rating (crabgrass, large; [8]): 85
Plant response rating, Blackgrass (blackgrass; [1]): 0
Plant response rating, Blackgrass (blackgrass; [2]): 0
Plant response rating, Blackgrass (blackgrass; [3]): 0
Plant response rating, Blackgrass (blackgrass; [4]): 0
Plant response rating, Blackgrass (blackgrass; [5]): 20
Plant response rating, Blackgrass (blackgrass; [6]): 50
Plant response rating, Blackgrass (blackgrass; [7]): 0
Blackgrass plant response rating (blackgrass; [8]): 0
Plant response rating, Velvetleaf (velvetleaf; [1]): 0
Plant response rating, Velvetleaf (velvetleaf; [2]): 0
Plant response rating, Velvetleaf (velvetleaf; [3]): 15
Plant response rating, Velvetleaf (velvetleaf; [4]): 35
Plant response rating, Velvetleaf (velvetleaf; [5]): 0
Plant response rating, Velvetleaf (velvetleaf; [6]): 0
Plant response rating, Velvetleaf (velvetleaf; [7]): 0
Plant response rating, Oat, Wild (oat, wild; [1]): 0
Plant response rating, Oat, Wild (oat, wild; [2]): 0
Plant response rating, Oat, Wild (oat, wild; [3]): 0
Plant response rating, Oat, Wild (oat, wild; [4]): 0
Plant response rating, Oat, Wild (oat, wild; [5]): 0
Plant response rating, Oat, Wild (oat, wild; [6]): 10
Plant response rating, Oat, Wild (oat, wild; [7]): 0
Plant response rating, Foxtail, Giant (foxtail, giant; [1]): 0
Plant response rating, Foxtail, Giant (foxtail, giant; [2]): 5
Plant response rating, Foxtail, Giant (foxtail, giant; [3]): 20
Plant response rating, Foxtail, Giant (foxtail, giant; [4]): 40
Plant response rating, Foxtail, Giant (foxtail, giant; [5]): 85
Plant response rating, Foxtail, Giant (foxtail, giant; [6]): 95
Plant response rating, Foxtail, Giant (foxtail, giant; [7]): 40
Foxtail, Giant plant response rating (foxtail, giant; [8]): 80
Plant response rating, Barnyardgrass (barnyardgrass; Postemergence, 125 g ai/ha, 0 to 100 scale, 0 no effect, 100 complete control): 80
Plant response rating, Barnyardgrass (barnyardgrass; Postemergence, 500 g ai/ha, 0 to 100 scale (0 no effect, 100 complete control)): 90
Barnyardgrass plant response rating (barnyardgrass; Preemergence, 125 g ai/ha, visual rating on 0 to 100 scale (0 no effect, 100 complete control)): 80
Plant response rating, Barnyardgrass (barnyardgrass; preemergence, 500 g ai/ha, 0 to 100 scale (0 no effect, 100 complete control)): 90
Plant response rating, Wheat (wheat (winter wheat); [1]): 0
Plant response rating, Wheat (wheat (winter wheat); [2]): 0
Plant response rating, Wheat (wheat (winter wheat); [3]): 0
Plant response rating, Wheat (wheat (winter wheat); [4]): 5
Plant response rating, Wheat (wheat (winter wheat); [5]): 20
Plant response rating, Wheat (wheat (winter wheat); [6]): 45
Plant response rating, Wheat (wheat (winter wheat); [7]): 0

Source: US10294202B2, “Pyrrolidinones as herbicides” (FMC Corporation, priority 2013, dated 2019)
